What was measured:
[1] = test system: Ba/F3 FLT3-ITD F691M line; test: Cell viability, Ba/F3 FLT3-ITD F691M gatekeeper mutant; type: cell-based; details: IC50, 48 hours, CellTiter GLO
Experimental: (§1) FIG. 3. Molecular docking study of compound 1 and impact of the most common gatekeeper variants in the human kinome on activity toward […]. […] The dim FLT3 active model was built using 1PKG (KIT) as a reference using Prime (Schrodinger®). The complex of active FLT3 bound to 1 was minimized by Embrace (Schrodinger®). […] Cells were treated with inhibitor at increasing log doses (0.1 nM-10 μM) for 48 hours. Cell viability was analyzed through CellTiter GLO.
(§2) To further investigate the possibility of a hydrophobic cage interaction and its contribution to the selectivity of compound 1, we assessed the impact of substitutions of the native phenylalanine at position 691 with the other residues most commonly found at this position in the human kinome (methionine, threonine, isoleucine, or valine). Ba/F3 cells transformed with FLT3-ITD or with FLT3-ITD substitutions at position 691 were assessed for sensitivity to compound 1 (FIG. 3C).
(§3) Exponentially growing cells (1×10^3-1×10^4 cells) were plated in triplicate in a 96-well plate with 0.1 mL of RPMI 1640+10% (vol/vol) FBS. Each triplicate was either dosed with drug or DMSO vehicle control. Drug dosing was completed at log doses ranging from 0.1 nM-10 μM. Cell viability was assessed after 48 hours using CellTiter GLO (Promega). Viability values were normalized to the vehicle control average. Numerical IC50 values were calculated in GraphPad Prism 7. […]

[2] = test system: Ba/F3 FLT3-ITD with Thr, Ile, or Val gatekeeper residues; test: Cell viability, Ba/F3 FLT3-ITD with Thr, Ile or Val gatekeeper; type: cell-based; details: other gatekeeper mutants (Thr, Ile, Val) compared with F691M
Experimental: as §1, §2, §3

FLT3 D835Y = FLT3 D835Y (Homo sapiens, UniProt P36888, D835Y); test: Enzyme kinetic analysis (5-FAM microfluidic assay), FLT3 D835Y; type: biochemical; details: variable ATP and inhibitor concentrations
Experimental: FIG. 14. Enzyme kinetic analysis of compound 1 and 2 against FLT3 and FLT3 D835Y. The 5-FAM labeled microfluidic assay was utilized and all the activities were measured using Caliper EZ Reader II with a 12-sipper chip. In the presence of variable concentrations of compound 1 or 2, phosphorylation activities of FLT3 and FLT3 D835Y were measured at different level of ATP within certain time durations.
To further assess putative binding modes of compounds 1 and 2, enzyme kinetic analyses were performed.

[3] = test system: Molm-14 F691L cells stably expressing firefly luciferase; test: Circulating tumor model, Molm14 F691L luciferase; type: in vivo
Experimental: FIG. 7. […] Molm14 F691L stably expressing FLuc9 were engrafted in mice through tail vein injection. Mice were imaged once every three days.
Molm-14 F691L cells stably expressing firefly luciferase were injected into the tail vein of NSG mice and tumor growth was monitored through bioluminescence.

SMILES | loss of activity relative to the Ba/F3 FLT3-ITD line [1] [fold] | loss of activity relative to the Ba/F3 FLT3-ITD line, in words [2] | binding mode / inhibition model from enzyme kinetics (FLT3 D835Y) | tumor growth compared to gilteritinib ([3]; both doses of compound 2 (5 or 10 mg/kg) vs gilteritinib 33 mg/kg) | tumor growth (bioluminescence), in words ([3]; daily oral gavage 14 days, compound 2 5 or 10 mg/kg, gilteritinib 33 mg/kg, vs vehicle control)
CN(C)CCNc1ncc(F)c(-c2cnc3cc(-c4cnn(C)c4)ccn23)n1 [Compound 1] | ~100 | an even greater impact | – | – | –
CC(C)(C)c1cc(NC(=O)Cc2ccc(-c3cnc4cc(-c5cnn(CCN6CCOCC6)c5)ccc4n3)cc2)no1 [Compound 2, N-(5-(tert-butyl)isoxazol-3-yl)-2-(4-(6-(1-(2-morpholinoethyl)-1H-pyrazol-4-yl)quinoxalin-2-yl)phenyl) acetamide] | – | – | intermediate conformation between type 1 and type 2 | statistically significant difference compared to gilteritinib | nearly halt all tumor growth

— patent US20260232684A1, “FLT3 INHIBITORS AND METHODS OF USING THE SAME” (BIOVENTURES, LLC, priority 2023, published 2026)
